Source: US20100249179A1, “Farnesoid X Receptor Agonists” (SMITHKLINE BEECHAM CORPORATION, priority 2007, published 2010)

target: T1, Human FXRα Ligand Binding Domain (Homo sapiens, UniProt Q96RI1); assay: FXR Cofactor Binding Assay (time resolved fluorescence, SRC-1 peptide recruitment); type: biochemical; conditions: class symbols; read-out: Activity (pEC50) (converted)
T1 construct: polyhistidine (pRSET-A vector leader) (N); made in house; host or cells: E. coli BL21 (DE3), pRSET-A vector
T1 sequence (Q96RI1 237-472 isoform Q96RI1-2): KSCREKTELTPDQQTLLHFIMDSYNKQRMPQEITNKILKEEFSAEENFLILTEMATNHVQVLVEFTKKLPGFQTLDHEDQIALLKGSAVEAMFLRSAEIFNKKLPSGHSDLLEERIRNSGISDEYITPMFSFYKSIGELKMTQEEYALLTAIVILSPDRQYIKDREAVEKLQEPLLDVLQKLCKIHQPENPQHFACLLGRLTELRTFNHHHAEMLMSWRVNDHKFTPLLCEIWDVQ
Text: Determination of a ligand mediated cofactor peptide interaction to quantify ligand binding to the nuclear receptor Farnesoid X Receptor (FXR). The method measures the ability of putative ligands to modulate the interaction between the purified bacterial expressed FXRα ligand binding domain (LBD) and a synthetic biotinylated peptide based on residues 676-700 of steroid receptor coactivator-1 (SRC-1) (LXXLL-containing domain-2 where L is the amino acid leucine and X indicates any other amino acid (LCD2), 676-700). The sequence of the SRC-1 peptide used is as published in Iannone, M. A., et al., 2001 Cytometry 44:326-337 where the N-terminus was biotinylated (B) and the C-terminus was amidated. Detection of the associated complex was measured by time resolved fluorescence (TRF). The purified LBD of FXR was labeled with biotin then mixed with stoichiometric amounts of allophycocyanin (APC) labeled streptavidin (Molecular Probes). The biotinylated peptide was then mixed with a ½ stoichiometric amount of europium labeled streptavidin (Wallac Inc). Each was then blocked with a 5 fold excess of biotin and allowed to equilibrate for 15 min. Equimolar amounts of receptor and peptide were mixed together and were allowed to equilibrate for at least 30 min prior to the addition to either a variable or constant concentrations of the sample for which the affinity is to be determined. After equilibration, the time-resolved fluorescent signal was quantitated using a fluorescent plate reader. The affinity of the test compound was estimated from a plot of fluorescence versus concentration of test compound added.
A basal level of FXR: peptide formation is observed in the absence of added ligand. Ligands that promote the complex formation induce a concentration-dependent increase in time-resolved fluorescent signal. Compounds which bind equally well to both monomeric FXR and to the FXR: peptide complex would be expected to give no change in signal, whereas ligands which bind preferentially to the monomeric receptor would be expected to induce a concentration-dependent decrease in the observed signal.
Advance Preparation: Human Farnesoid X Receptor α Ligand Binding Domain Human FXRα Ligand Binding Domain (FXRα LBD) was expressed in E. coli strain BL21 (DE3) as an amino-terminal polyhistidine tagged fusion protein. Expression was under the control of an isopropyl-β-D-thiogalactopyranoside (IPTG) inducible T7 promoter. DNA encoding this recombinant protein is subcloned into the pRSET-A expression vector (Invitrogen). The coding sequence of Human FXRα LBD was derived from Genbank accession number U 68233 (amino acids 237 to 472).
Ten-liter fermentation batches were grown in Rich PO4 media with 0.1 mg/mL Ampicillin at 25° C. for 12 hours, cooled to 9° C. and held at that temperature for 36 hours to a density of OD600=14. At this cell density, 0.25 mM IPTG is added and induction proceeded for 24 hours at 9° C., to a final OD600=16. Cells are harvested by centrifugation (20 minutes, 3500× gravity, 4° C.), and concentrated cell slurries were stored in phosphate buffered saline (PBS) at […].
Routinely, 30-40 g cell paste (equivalent to 2-3 liters of the fermentation batch) was resuspended in 200-250 mL Tris buffered saline (TBS), pH 7.2 (25 mM Tris-hydroxymethylamino methane (Tris), 150 mM sodium chloride). Cells were lysed by passing 3 times through a French Press and cell debris was removed by centrifugation (30 minutes, 20,000× gravity, 4° C.). The cleared supernatant was filtered through course pre-filters, and TBS, pH 7.2, 500 mM imidazole was added to obtain a final imidazole concentration of 50 mM. This lysate was loaded onto a column (6×8 cm) packed with Sepharose [Ni^++ charged] Chelation resin (Pharmacia) and pre-equilibrated with TBS pH 7.2/50 mM imidazole. After washing to baseline absorbance with equilibration buffer, the column was washed with one column volume of TBS pH 7.2 containing 90 mM imidazole. […]

SMILES	EC50
CC(C)c1onc(-c2c(Cl)cccc2Cl)c1COc1ccc(-c2ccc3c(c2)C(C(=O)O)CC3)cc1 (centres unmarked) [Example 2, 6-[4-({[3-(2,6-Dichlorophenyl)-5-(1-methylethyl)-4-isoxazolyl]methyl}oxy)phenyl]-2,3-dihydro-1H-indene-1-carboxylic Acid]	0.102 to 1 µM
CC(C)c1onc(-c2c(Cl)cccc2Cl)c1COc1ccc(-c2ccc3c(c2)CC(C(=O)O)C3)cc1 (centres unmarked) [Example 6, 5-[4-({[3-(2,6-Dichlorophenyl)-5-(1-methylethyl)-4-isoxazolyl]methyl}oxy)phenyl]-2,3-dihydro-1H-indene-2-carboxylic Acid]	0.102 to 1 µM
CC(C)c1onc(-c2c(Cl)cccc2Cl)c1COc1ccc(-c2ccc3c(c2)CCC3(O)C(=O)O)cc1 (centres unmarked) [Example 7, 5-[4-({[3-(2,6-Dichlorophenyl)-5-(1-methylethyl)-4-isoxazolyl]methyl}oxy)phenyl]-1-hydroxy-2,3-dihydro-1H-indene-1-carboxylic Acid]	0.102 to 1 µM
CC(C)c1onc(-c2c(Cl)cccc2Cl)c1COc1ccc(-c2csc3ccc(C(=O)O)cc23)cc1 [Example 9, 3-[4-({[3-(2,6-Dichlorophenyl)-5-(1-methylethyl)-4-isoxazolyl]methyl}oxy)phenyl]-1-benzothiophene-5-carboxylic Acid]	1.02 to 10 µM
CC(C)c1onc(-c2c(Cl)cccc2Cl)c1COc1ccc(-c2ccc3sc(C(=O)O)cc3n2)cc1 [Example 10, 5-[4-({[3-(2,6-Dichlorophenyl)-5-(1-methylethyl)-4-isoxazolyl]methyl}oxy)phenyl]thieno[3,2-b]pyridine-2-carboxylic Acid]	0.102 to 1 µM
CC(C)c1onc(-c2c(Cl)cccc2Cl)c1COc1ccc(-c2ccc3c(C(=O)O)c[nH]c3c2)cn1 [Example 13, 6-[6-({[3-(2,6-Dichlorophenyl)-5-(1-methylethyl)-4-isoxazolyl]methyl}oxy)-3-pyridinyl]-1H-indole-3-carboxylic Acid]	0.102 to 1 µM
CC(C)c1onc(-c2c(Cl)cccc2Cl)c1COc1ccc(-c2ccc3c(c2)CCCC3C(=O)O)cc1 (centres unmarked) [Example 17, 6-[4-({[3-(2,6-Dichlorophenyl)-5-(1-methylethyl)-4-isoxazolyl]methyl}oxy)phenyl]-1,2,3,4-tetrahydro-1-naphthalenecarboxylic Acid]	0.102 to 1 µM
CC(C)c1onc(-c2c(Cl)cccc2Cl)c1COc1ccc(Nc2cccc3ccc(C(=O)O)cc23)cc1 [Example 18, 8-{[4-({[3-(2,6-Dichlorophenyl)-5-(1-methylethyl)-4-isoxazolyl]methyl}oxy)phenyl]amino}-2-naphthalenecarboxylic Acid]	0.102 to 1 µM
CC(C)c1onc(-c2c(Cl)cccc2Cl)c1COc1ccc(Sc2cccc3sc(C(=O)O)cc23)cc1 [Example 19, 4-{[4-({[3-(2,6-Dichlorophenyl)-5-(1-methylethyl)-4-isoxazolyl]methyl}oxy)phenyl]thio}-1-benzothiophene-2-carboxylic Acid]	0.102 to 1 µM
CC(C)c1onc(-c2c(Cl)cccc2Cl)c1COc1ccc(-c2nc3cccc(C(=O)O)c3[nH]2)cc1 [Example 21, 2-[4-({[3-(2,6-Dichlorophenyl)-5-(1-methylethyl)-4-isoxazolyl]methyl}oxy)phenyl]-1H-benzimidazole-4-carboxylic Acid]	1.02 to 10 µM

The remaining lines, values ahead:

EC50	SMILES
< 0.1 µM	CC(C)c1onc(-c2c(Cl)cccc2Cl)c1COc1ccc(-c2ccc3[nH]c(C(=O)O)cc3c2)cc1 [Example 1, 5-[4-({[3-(2,6-Dichlorophenyl)-5-(1-methylethyl)-4-isoxazolyl]methyl}oxy)phenyl]-1H-indole-2-carboxylic Acid]
< 0.1 µM	CC(C)c1onc(-c2c(Cl)cccc2Cl)c1COc1ccc(-c2ccc3c(C(=O)O)c[nH]c3c2)cc1 [Example 3, 6-[4-({[3-(2,6-Dichlorophenyl)-5-(1-methylethyl)-4-isoxazolyl]methyl}oxy)phenyl]-1H-indole-3-carboxylic Acid]
< 0.1 µM	CC(C)c1onc(-c2c(Cl)cccc2Cl)c1COc1ccc(-c2ccc3oc(C(=O)O)cc3c2)cc1 [Example 4, 5-[4-({[3-(2,6-Dichlorophenyl)-5-(1-methylethyl)-4-isoxazolyl]methyl}oxy)phenyl]-1-benzofuran-2-carboxylic Acid]
0.102 to 1 µM	CC(C)c1onc(-c2c(Cl)cccc2Cl)c1COc1ccc(-c2ccc3cc(C(=O)O)[nH]c3c2)cc1 [Example 5, 6-[4-({[3-(2,6-Dichlorophenyl)-5-(1-methylethyl)-4-isoxazolyl]methyl}oxy)phenyl]-1H-indole-2-carboxylic Acid]
1.02 to 10 µM	CC(C)c1onc(-c2c(Cl)cccc2Cl)c1COc1ccc(-c2ccc3c(C(=O)O)n[nH]c3c2)cc1 [Example 8, 6-[4-({[3-(2,6-Dichlorophenyl)-5-(1-methylethyl)-4-isoxazolyl]methyl}oxy)phenyl]-1H-indazole-3-carboxylic Acid]
< 0.1 µM	CC(C)c1onc(-c2c(Cl)cccc2Cl)c1COc1ccc(-c2ccc3c(C(=O)O)csc3c2)cc1 [Example 11, 6-[4-({[3-(2,6-Dichlorophenyl)-5-(1-methylethyl)-4-isoxazolyl]methyl}oxy)phenyl]-1-benzothiophene-3-carboxylic Acid]
0.102 to 1 µM	CC(C)c1onc(-c2c(Cl)cccc2Cl)c1COc1ccc(-c2ccc3sc(C(=O)O)cc3c2)cc1 [Example 12, 5-[4-({[3-(2,6-Dichlorophenyl)-5-(1-methylethyl)-4-isoxazolyl]methyl}oxy)phenyl]-1-benzothiophene-2-carboxylic Acid]
< 0.1 µM	CC(C)c1onc(-c2c(Cl)cccc2Cl)c1COc1ccc(-c2ccc3oc(C(=O)O)cc(=O)c3c2)cc1 [Example 14, 6-[4-({[3-(2,6-Dichlorophenyl)-5-(1-methylethyl)-4-isoxazolyl]methyl}oxy)phenyl]-4-oxo-4H-chromene-2-carboxylic Acid]
0.102 to 1 µM	CC(C)c1onc(-c2c(Cl)cccc2Cl)c1COc1ccc(-c2ccc3c(C(=O)O)cc(=O)oc3c2)cc1 [Example 15, 7-[4-({[3-(2,6-Dichlorophenyl)-5-(1-methylethyl)-4-isoxazolyl]methyl}oxy)phenyl]-2-oxo-2H-chromene-4-carboxylic Acid]
0.102 to 1 µM	CC(C)c1onc(-c2c(Cl)cccc2Cl)c1COc1ccc(-c2ccc3c(=O)cc(C(=O)O)oc3c2)cc1 [Example 16, 7-[4-({[3-(2,6-Dichlorophenyl)-5-(1-methylethyl)-4-isoxazolyl]methyl}oxy)phenyl]-4-oxo-4H-chromene-2-carboxylic Acid]

same assay, conditions: given as numeric bound; read-out: Activity (pEC50) (converted)

EC50	SMILES
> 20 µM	CCOC(=O)c1noc2cc(-c3ccc(OCc4c(-c5c(Cl)cccc5Cl)noc4C(C)C)cc3)ccc12 [Example 20, Ethyl 6-[4-({[3-(2,6-dichlorophenyl)-5-(1-methylethyl)-4-isoxazolyl]methyl}oxy)phenyl]-1,2-benzisoxazole-3-carboxylate]

system: cultured HSCs; assay: not given; conditions: cited from earlier work

SMILES	expression of fibrotic markers such as α-smooth muscle actin and α1(I) collagen
CC[C@H]1[C@@H](O)[C@@H]2[C@H](CC[C@]3(C)[C@@H]([C@H](C)CCC(=O)O)CC[C@@H]23)[C@@]2(C)CC[C@@H](O)C[C@@H]12 [Example 6EtCDCA, 6-ethyl-chenodeoxycholic acid]	decreased

system: rodent models of hepatic fibrosis; assay: not given; conditions: multiple rodent models; cited from earlier work

SMILES	hepatic fibrosis
CC[C@H]1[C@@H](O)[C@@H]2[C@H](CC[C@]3(C)[C@@H]([C@H](C)CCC(=O)O)CC[C@@H]23)[C@@]2(C)CC[C@@H](O)C[C@@H]12 [Example 6EtCDCA, 6-ethyl-chenodeoxycholic acid]	prevent development and promote resolution
